How the values were obtained:
[1] = Photolysis with UV lamp, photolysis rate measured by HPLC; format: physicochemical; conditions: buffer, pH 7.4
Protocol: Photolysis was conducted by the known method (Takaoka, K. et al., Bioorganic & Medicinal Chemistry Letters, 13, 965-970, 2003), and the obtained samples were quantified by HPLC or a glutamate uptake assay.
The caged inhibitor was dissolved to 100 μM in a PBS(+) solution [140 mM NaCl, 5 mM KCl, 8 mM Na2HPO4, 1.5 mM KH2PO4, 1 mM CaCl2, 1 mM MgCl2, pH 7.4], and a 300 μL portion of the solution was placed in a quartz cuvette with a 1 mm optical path and situated at a location at 10 cm from a UV lamp (Spectroline ENF-260C/J, product of Spectronics Co.), and then covered with a black box and irradiated with 365 nm UV rays at room temperature for 1-120 minutes. The luminous energy under these conditions was approximately 0.5 J/cm^2 with 10 minutes of irradiation. The irradiated sample was quantified by HPLC.
The sample was subjected to UV irradiation for a prescribed period and then analyzed by HPLC [column: SP-120-5-ODS-AP (Daiso CO.); eluent, CH3CN:H2O:TFA=32:68:0.1 or gradient from CH3CN:H2O:TFA=32:68:0.1 to 50:50:0.1], and the concentration was determined from the ratio of UV absorption at 254 nm with respect to an internal substance (3′,4′-dimethoxyacetophenone, 10 μM). The percentage with respect to the concentration prior to irradiation was calculated and graphed, and the half-life was determined.

[2] = system: EAAT1-5 subtypes; conditions: cited from earlier work; for inhibitory activity compared with L-TBOA: prior application of the inventors
[3] = system: glutamate receptor; conditions: prior art statement; cited from earlier work

| Compound | half-life (photolysis, decay of caged compound) [1] [min] | inhibitory activity compared with L-TBOA [2] | also measured |
| --- | --- | --- | --- |
| O=C(O)COc1cc2oc(=O)cc(COC(=O)N[C@H](C(=O)O)[C@H](OCc3ccccc3)C(=O)O)c2cc1OCC(=O)O [5b, (2S,3S)-3-benzyloxy-N-[6,7-bis(carboxymethoxy)coumarin-4-ylmethoxy]carbonylaspartate] | 7.8 | – | – |
| COc1ccc(C(=O)Nc2cccc(CO[C@H](C(=O)O)[C@H](N)C(=O)O)c2)cc1 [PMB-TBOA] | – | more powerful inhibitory activity than L-TBOA | – |
| N[C@H](C(=O)O)[C@H](OCc1cccc(NC(=O)c2ccc(C(F)(F)F)cc2)c1)C(=O)O [TFB-TBOA] | – | more powerful inhibitory activity than L-TBOA | – |
| O=C(O)COc1ccc2c(COC(=O)N[C@H](C(=O)O)[C@H](OCc3ccccc3)C(=O)O)cc(=O)oc2c1 [5a, (2S,3S)-3-benzyloxy-N-[7-(carboxymethoxy)coumarin-4-ylmethoxy]carbonylaspartate] | 19 | – | – |
| N[C@H](C(=O)O)[C@H](OCc1ccccc1)C(=O)O [L-TBOA, L-threo-β-benzyloxyaspartate] | – | – | affinity for glutamate receptor compared to existing inhibitors [3]: lower affinity for glutamate receptor compared to existing inhibitors; blocker activity on glutamate transporters ([2]; prior art statement): Particularly powerful blocker activity |
